From patent US8933028B2, “Use of selective estrogen receptor modulator for joint fusion and other repair or healing of connective tissue” (priority 2010, dated 2015)
“Also recorded” adds a separate entry of the source.

Experiments:
[1] = system: endogenous BMP-2; details: primarily on the α-estrogen receptor; cited from earlier work
[2] = cited from earlier work
[3] = system: sacroiliac joint; test: Effect of oral raloxifene on bone healing after sacroiliac joint fusion with BMP-2; type: in vivo, human
From the text: The patients involved in the study were female at age of over 60 years old.

[4] = system: bone; details: postmenopausal women, compared with estrogen; cited from earlier work
[5] = system: osteoblastic cells; details: cited from earlier work
[6] = system: fracture healing; details: primates; cited from earlier work
[7] = system: tendon to bone healing; details: rat model; cited from earlier work
[8] = raloxifene therapy for osteoporosis

Molecule: O=C(c1ccc(OCCN2CCCCC2)cc1)c1c(-c2ccc(O)cc2)sc2cc(O)ccc12 [raloxifene]
- effect on endogenous BMP-2 (potentiation / secretion) [1]: similar
- stimulation of the uterus or breasts [2, 8]: does not stimulate
- tolerability [2, 8]: well tolerated
- occurrence of uterine bleeding, thrombophlebitis, breast abnormalities, or increased endometrial thickness ([2]; raloxifene treated groups versus control): no differences among groups
- bone healing or bone graft incorporation versus raloxifene immediately following surgery ([3]; delayed raloxifene administration): not as complete
- recovery versus control patients with BMP-2 only ([3]; delayed raloxifene administration, some patients): superior recovery results
- bone healing / maturity of bone ([3]; females over 60, raloxifene 60 mg/day orally for three months after surgery, BMP-2 at surgery in all patients): Significant improvement
- bone graft incorporation into host bone (images) ([3]; females over 60, three months after surgery, BMP-2 at surgery in all patients, FIGS. 5-7): improved incorporation; also recorded: fully healed and incorporated
- fusion result compared with patient who received BMP-2 without raloxifene ([3]; postmenopausal women, local BMP-2 and oral raloxifene, three months): better than normal healing
- activation frequency, bone formation rate or bone volume [4]: did not decrease
- effect on TNF-α induced apoptosis [5]: anti-apoptotic effect

Molecule: FGF-2: fibroblast growth factor-2, likely potent bone anabolic agent
- fracture healing [6]: accelerates fracture healing and prevents nonunion

Molecule: estrogen
- effect on endogenous BMP-2 (potentiation / secretion) [1]: direct measurable effect

B1: rhPTH: Recombinant Human Parathyroid Hormone (protein, UniProt P01270 32-115, looked up)
Parathyroid hormone: SVSEIQLMHNLGKHLNSMERVEWLRKKLQDVHNFVALGAPLAPRDAGSQRPRKKEDNVLVESHEKSLGEADKADVNVLTKAKSQ
modifications: Parathyroid hormone
- tendon repair and tendon qualities [7]: improved
